In patent publication US6288037A (BASF Aktiengesellschaft, priority 1996, dated 2001):
Where a SMILES comes first, the peptide text is derived from it.

Tests used:
N-His Ich-1 [1] = biological target: T1, N-His Ich-1 (Homo sapiens, UniProt P42575); assay: In vitro proteolysis assay with chromogenic para-nitroaniline-labeled peptide substrate (absorbance 405 nm); assay type: biochemical
T1 construct: contains Ich-1 amino acid residues 167-435, with an initiator and polyhistidine tag fused to the amino terminus; initiator (Met) + polyhistidine tag (N); made in house
T1 sequence (P42575 184-333): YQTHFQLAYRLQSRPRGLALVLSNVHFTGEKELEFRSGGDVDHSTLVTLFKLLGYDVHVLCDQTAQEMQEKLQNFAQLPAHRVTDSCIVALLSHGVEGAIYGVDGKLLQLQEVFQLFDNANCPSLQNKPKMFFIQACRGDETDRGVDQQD
T1 sequence (P42575 334-452): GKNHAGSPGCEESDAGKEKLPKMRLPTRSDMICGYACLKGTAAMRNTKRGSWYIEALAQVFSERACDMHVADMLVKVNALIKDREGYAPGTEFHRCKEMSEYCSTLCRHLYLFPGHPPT
From the text: To identify peptide substrates for Ich-1, candidate peptides were used in in vitro proteolysis assays with recombinant Ich-1 protein. Human Ich-1 enzyme (the nucleotide and amino acid sequences for which are disclosed in Wang, L., et al. (1994) Cell 78:739-750) was expressed recombinantly with an N-terminal polyhistidine tag by methods described in Kamens, J., et al. (1995) J. Biol. Chem. 270:15250-15256. The resulting enzyme, called N-His Ich-1, contains Ich-1 amino acid residues 167-435, with an initiator and polyhistidine tag fused to the amino terminus. […]
A peptidic aldehyde inhibitor of Ich-1 was designed based upon the optimal peptide substrate (Peptide 43) described in Example 3. […] The ability of this peptidic aldehyde inhibitor to inhibit N-His Ich-1 activity was determined in in vitro proteolysis assays using a chromogenic para-nitroaniline-labeled peptide substrate. […]
To perform the proteolysis assay, N-His Ich-1 was preincubated for 30 minutes at 30° C. in 160 μl of a reaction buffer containing 100 mM sodium acetate (pH 6.2), 20% (v/v) glycerol, 5 mM DTT, 0.5 mM EDTA, […]. […] The incubation of N-His Ich-1 with the peptide substrate at 30° C. was continued, and the catalytic hydrolysis of peptide substrate was monitored by the change in absorbance of the samples at 405 nm due to release of pNA as a function of time. […]

N-His Ich-1 [2] = assay: reaction buffer containing 100 mM sodium acetate (pH 6.2), 20% (v/v) glycerol, 5 mM DTT, 0.5 mM EDTA, at pH 7.5; conditions: Human, 30° C.

| IC50 (N-His Ich-1 [1]; 500 μM pNA substrate, inhibitor 0.1 nM to 10 μM, sigmoidal fit) [nM] | Ki (N-His Ich-1 [1]; calculated from IC50, [S] and Km, read-out: apparent Ki) [nM] | cleaved bond (N-His Ich-1 [2]) | Molecule |
| --- | --- | --- | --- |
| 8 | 2.5 |  | CC(=O)N[C@H](C(=O)N[C@@H](CC(=O)O)C(=O)N[C@H](C(=O)N[C@@H](C)C(=O)N[C@H](C=O)CC(=O)O)C(C)C)C(C)C [Ac-VDVAD-CHO, acetyl-Val-Asp-Val-Ala-Asp-CHO] (Ac-VDVAD-aldehyde) |
|  |  | Asp-pNA | acetyl-Val-Asp-Val-Ala-Asp-para-nitroaniline |
